Molecules are shown by their SMILES. Some results are limits rather than exact numbers.

As a reminder, the IC50 is the concentration at which inhibition is half-maximal.

The target of the first assay is T1, human cathepsin K (Homo sapiens, UniProt P43235).
T1 construct: The proform of cathepsin K was converted to mature cathepsin K by brief exposure to pH 4; made in house; host or cells: baculovirus; Trichoplusia ni High Five cells (virus raised in Sf-9)
T1 sequence (P43235 115-329): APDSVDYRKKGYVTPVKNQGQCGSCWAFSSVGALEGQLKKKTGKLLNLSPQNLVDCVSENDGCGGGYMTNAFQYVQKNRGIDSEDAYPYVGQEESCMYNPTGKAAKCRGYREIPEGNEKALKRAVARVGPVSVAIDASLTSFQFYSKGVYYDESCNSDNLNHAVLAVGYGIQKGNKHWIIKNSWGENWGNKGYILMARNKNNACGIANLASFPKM
The assay can be described thus: Cathepsin K inhibition, fluorogenic substrate Cbz-Phe-Arg-AMC, progress curve method. The class given is biochemical.
Conditions: not given
Here is the method: All assays for cathepsin K were carried out with human and rat recombinant enzyme. Assays for cathepsins S & V were also carried out with human recombinant enzyme. Assays for human cathepsins B, H, and L were carried out with enzyme prepared from human liver tissue. […] A stock substrate solution of Cbz-Phe-Arg-AMC was prepared at a concentration of 50 mM in dimethyl sulfoxide. This substrate was diluted into the assay for a final substrate concentration of 10 μM in the rat cathepsin K, human cathepsin K, and human cathepsin B assays; a final substrate concentration of 5 μM in the human cathepsin L assay; and a final substrate concentration of 2 μM in the human cathepsin V assay.
All assays contained 10% dimethyl sulfoxide. […] All assays were conducted at 30° C. Product fluorescence (excitation at 360 nm; emission at 440 nm, (except cathepsin H which used excitation at 340 nm; emission at 420 nm)) was monitored with a PerSeptive Biosystems Cytofluor II fluorescence plate reader. Product progress curves were generated over 2.3 h monitoring the formation of 7-amino-4-methylcoumarin product (or β-naphthalamide for cathepsin H).
Human and Rat Cathepsin K:
The cells continued to grow for 72 h post-infection, before the virus was harvested by centrifugation at 1400×g for 30 min.
One and one-half liters of Trichoplusia ni (T. ni) High Five (TM) cells [JRH Biosciences, Woodland, Calif. […] The cells were grown for 24 h at 28° C., 50 RPM, and 50% dissolved oxygen. […] Media were separated from cells at a rate of 1 L/min using the Centritech 100 (TM) continuous-flow centrifuge (DuPont) operating at 200×g.
Protein Purification: Media (human and rat) were filtered through a Whatman 3 filter, and then loaded onto a 25 mL Poros HS II (26 mm×47 mm) cation exchange column equilibrated in 25 mM sodium acetate at pH 5.5 (equilibration buffer). The column was washed until the absorbance reached the baseline value, and then the protein was eluted with a linear gradient from 0–2 M sodium chloride in the equilibration buffer. Column fractions were analyzed by SDS-PAGE, N-terminal sequencing, and mass spectrometry. Fractions containing the proform of cathepsin K were pooled and frozen at −80° C. The proform was concentrated in an Amicon Centriprep 10 and fractionated with a Superdex 75 column (26 mm×600 mm, Pharmacia) equilibrated in 400 mM sodium chloride, 25 mM sodium acetate at pH 5.5.
Cathepsin K Activation: The proform of cathepsin K was converted to mature cathepsin K by brief exposure to pH 4 in the presence of 5 mM L-cysteine. Typically, 5 mM L-cysteine was added to 10 mL of approximately 1 mg/mL procathepsin K. One mL of this solution was diluted ten-fold into 450 mM sodium acetate at pH 4.0 containing 5 mM L-cysteine. This solution was reacted at 23° C. for 2 min before neutralization with 2 mL 1.8 M sodium acetate at pH 6.0. The neutralized sample was added to the remaining 9 mL of procathepsin K. The mixture was incubated at 4° C. for 2–3 days. The activated cathepsin K was chromatographed on a Poros HS II column as described above.
Potential inhibitors were evaluated using the progress curve method. Assays were carried out in the presence of variable concentrations of test compound. Reactions were initiated by addition of buffered solutions of inhibitor and substrate to enzyme. Data analysis was conducted according to one of two procedures depending on the appearance of the progress curves in the presence of inhibitors. […] Ki values were calculated from IC50 values using equation 2 assuming a competitive model.
In the case of `CCCC[C@H](NC(=O)O[C@H](Cn1ccc(-c2ccc(C(F)(F)F)cc2)n1)C(C)(C)C)C(=O)CNC(=O)N1CCOCC1` [Example 4, (1S)-2,2-dimethyl-1-({3-[4-(trifluoromethyl)phenyl]-1H-pyrazol-1-yl}methyl)propyl (1S)-1-{[(4-morpholinylcarbonyl)amino]acetyl}pentylcarbamate], the IC50 is 1000 to 10000 nM.

Staying with this assay, now noted: Table 1, Inhibition of Cathepsin K (Ki in nM); recombinant human enzyme, 10 μM substrate, pH 5.5, 30° C.; read-out: hCat K IC50.
`CC(C)(C)[C@@H](Cn1ccc(-c2ccc(C(F)(F)F)cc2)n1)OC(=O)NCC(=O)CNS(=O)(=O)c1ccccn1` [Example 1, (1S)-2,2-dimethyl-1-({3-[4-(trifluoromethyl)phenyl]-1H-pyrazol-1-yl}methyl)propyl 2-oxo-3-[(2-pyridinylsulfonyl)amino]propylcarbamate]: the IC50 was in the range of 10 to 100 nM.

With `CCCC[C@H](NC(=O)O[C@H](Cn1cc(-c2ccc(C(F)(F)F)cc2)cn1)C(C)(C)C)C(=O)CNS(=O)(=O)c1ccccn1` [Example 11, (1S)-2,2-dimethyl-1-({4-[4-(trifluoromethyl)phenyl]-1H-pyrazol-1-yl}methyl)propyl (1S)-1-{[(2-pyridinylsulfonyl)amino]acetyl}pentylcarbamate], the IC50 was 10 to 100 nM. The same measure, in the same setting: next, `CCCC[C@H](NC(=O)O[C@H](Cn1nccc1-c1ccc(C(F)(F)F)cc1)C(C)(C)C)C(=O)CNS(=O)(=O)c1ccccn1` [Example 12, (1S)-2,2-dimethyl-1-({5-[4-(trifluoromethyl)phenyl]-1H-pyrazol-1-yl}methyl)propyl (1S)-1-{[(2-pyridinylsulfonyl)amino]acetyl}pentylcarbamate]: 10 to 100 nM. On the same count and under the same terms, next, `CCCC[C@H](NC(=O)O[C@H](Cn1ccc(C(F)(F)F)n1)C(C)(C)C)C(=O)CNS(=O)(=O)c1ccccn1` [Example 7, (1S)-2,2-dimethyl-1-{[3-(trifluoromethyl)-1H-pyrazol-1-yl]methyl}propyl (1S)-1-{[(2-pyridinylsulfonyl)amino]acetyl}pentylcarbamate]: 10 to 100 nM; `CCCC[C@H](NC(=O)O[C@H](Cn1ccc(-c2ccc(C(F)(F)F)cc2)n1)C(C)(C)C)C(=O)CNc1cccc(F)n1` [Example 5, (1S)-2,2-dimethyl-1-({3-[4-(trifluoromethyl)phenyl]-1H-pyrazol-1-yl}methyl)propyl (1S)-1-{[(6-fluoro-2-pyridinyl)amino]acetyl}pentylcarbamate]: < 10 nM. On the same count and under the same terms, next, `CCCC[C@H](NC(=O)O[C@H](Cn1ccc(-c2cccnc2)n1)C(C)(C)C)C(=O)CNS(=O)(=O)c1ccccn1` [Example 13, (1S)-2,2-dimethyl-1-{[3-(3-pyridinyl)-1H-pyrazol-1-yl]methyl}propyl (1S)-1-{[(2-pyridinylsulfonyl)amino]acetyl}pentylcarbamate]: < 10 nM; `CCCC[C@H](NC(=O)O[C@H](COc1ccc(-n2ccnc2)cc1)C(C)(C)C)C(=O)CNS(=O)(=O)c1ccccn1` [Example 19, (1S)-1-{[4-(1H-imidazol-1-yl)phenoxy]methyl}-2,2-dimethylpropyl (1S)-1-{[(2-pyridinylsulfonyl)amino]acetyl}pentylcarbamate]: < 10 nM; `CCCC[C@H](NC(=O)O[C@H](Cn1ccc(-c2ccc(C(F)(F)F)cc2)n1)C(C)(C)C)C(=O)CNS(=O)(=O)c1ccccn1` [Example 3, (1S)-2,2-dimethyl-1-({3-[4-(trifluoromethyl)phenyl]-1H-pyrazol-1-yl}methyl)propyl (1S)-1-{[(2-pyridinylsulfonyl)amino]acetyl}pentylcarbamate]: 10 to 100 nM. Regarding `CCCC[C@H](NC(=O)O[C@H](Cn1cnc2cc(Cl)c(Cl)cc21)C(C)(C)C)C(=O)CNS(=O)(=O)c1ccccn1` [Example 15, (1S)-1-[(5,6-dichloro-1H-benzimidazol-1-yl)methyl]-2,2-dimethylpropyl (1S)-1-{[(2-pyridinylsulfonyl)amino]acetyl}pentylcarbamate], the IC50 was < 10 nM. For `CCCC[C@H](NC(=O)O[C@H](Cn1cnc(-c2ccc(C(F)(F)F)cc2)c1)C(C)(C)C)C(=O)CNS(=O)(=O)c1ccccn1` [Example 18, (1S)-2,2-dimethyl-1-({4-[4-(trifluoromethyl)phenyl]-1H-imidazol-1-yl}methyl)propyl (1S)-1-{[(2-pyridinylsulfonyl)amino]acetyl}pentylcarbamate], the IC50 was < 10 nM. Still for that read-out and setting: as for `CCCC[C@H](NC(=O)O[C@H](c1nc2cc(C(F)(F)F)ccc2s1)C(C)(C)C)C(=O)CNS(=O)(=O)c1ccccn1` [Example 9, (1S)-2,2-dimethyl-1-[5-(trifluoromethyl)-1,3-benzothiazol-2-yl]propyl (1S)-1-{[(2-pyridinylsulfonyl)amino]acetyl}pentylcarbamate], the figure is 10 to 100 nM; as for `CCCC[C@H](NC(=O)O[C@H](Cn1ccc(-c2ccncc2)n1)C(C)(C)C)C(=O)CNS(=O)(=O)c1ccccn1` [Example 14, (1S)-2,2-dimethyl-1-{[3-(4-pyridinyl)-1H-pyrazol-1-yl]methyl}propyl (1S)-1-{[(2-pyridinylsulfonyl)amino]acetyl}pentylcarbamate], < 10 nM. Regarding `C[C@H](NC(=O)O[C@H](Cn1ccc(-c2ccc(C(F)(F)F)cc2)n1)C(C)(C)C)C(=O)CNS(=O)(=O)c1ccccn1` [Example 2, (1S)-2,2-dimethyl-1-({3-[4-(trifluoromethyl)phenyl]-1H-pyrazol-1-yl}methyl)propyl (1S)-1-methyl-2-oxo-3-[(2-pyridinylsulfonyl)amino]propylcarbamate], the IC50 lay within 10 to 100 nM.

For `CC(C)(C)[C@@H](Cn1cnc2cc(Cl)c(Cl)cc21)OC(=O)NCC(=O)CNS(=O)(=O)c1ccccn1` [Example 17, (1S)-1-[(5,6-dichloro-1H-benzimidazol-1-yl)methyl]-2,2-dimethylpropyl 2-oxo-3-[(2-pyridinylsulfonyl)amino]propylcarbamate], the IC50 is < 10 nM. Same read-out and setting: next, `C[C@H](NC(=O)O[C@H](Cn1ccc(C(F)(F)F)n1)C(C)(C)C)C(=O)CNS(=O)(=O)c1ccccn1` [Example 8, (1S)-2,2-dimethyl-1-{[3-(trifluoromethyl)-1H-pyrazol-1-yl]methyl}propyl (1S)-1-methyl-2-oxo-3-[(2-pyridinylsulfonyl)amino]propylcarbamate]: 100 to 1000 nM; `C[C@H](NC(=O)O[C@H](c1nc2cc(C(F)(F)F)ccc2s1)C(C)(C)C)C(=O)CNS(=O)(=O)c1ccccn1` [Example 10, (1S)-2,2-dimethyl-1-[5-(trifluoromethyl)-1,3-benzothiazol-2-yl]propyl (1S)-1-methyl-2-oxo-3-[(2-pyridinylsulfonyl)amino]propylcarbamate]: 100 to 1000 nM.

These data come from patent US7288541B2, “Propylcarbamate derivatives as inhibitors of serine and cysteine proteases” (SmithKline Beecham Corporation, priority 2001, dated 2007).
